Test results reported in patent US11000033B2, “Ketone or oxime compound, and herbicide” (NISSAN CHEMICAL CORPORATION, priority 2014, dated 2021).

Tests used:
Assay type in all cases: in vivo
[1] = test system: Echinochloa oryzacola Vasing.; assay: Test Example 1: herbicidal activity, application before weed generation in submerged conditions (symbol A); conditions: application herbicide amount 320 g/ha
Outline: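 0–5 visual score, 3 wk post-application. Submerged pots, alluvial soil, water 4 cm; seeds sown mixed, rice at 2.5 leaves transplanted. Emulsion diluted to predetermined dose, applied to water surface at sowing. 25–30 °C greenhouse.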

transplanted rice plant = assay: Test Example 1: effect on crop, application before weed generation in submerged conditions (symbol a); conditions: application herbicide amount 320 g/ha
Outline: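 Alluvial soil pots flooded to 4 cm water, sown with Echinochloa oryzacola, Scirpus juncoides and Monochoria vaginalis, then transplanted with 2.5 leaf stage rice seedlings; pre-emergence application. Greenhouse 25° C. to 30° C.; scored 0–5 by herbicidal ratio 3 weeks after application.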

Scirpus juncoides = assay: Test Example 2: herbicidal activity, application during weed generation in submerged conditions (symbol B); conditions: Table 23; application herbicide amount 320 g/ha; grade 0-5 by criteria of Test Example 1
Outline: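 Weeds emerging under flooded conditions were treated with compound formulated as an emulsion and diluted with water to the intended herbicide amount, poured onto the surface of 4 cm standing water. Seeds had been co-sown in alluvial soil; plants grew at 25° C. to 30° C. and were assessed after 3 weeks.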

[2] = test system: Echinochloa crus-galli var. crus-galli; assay: Test Example 3: herbicidal effect by foliage application, Wagner pot (symbol H); conditions: application herbicide amount 320 g/ha
Outline: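 Alluvial soil was flooded to a depth of 0.1–0.5 cm, seeded with the weeds and rice, and kept in a greenhouse at 25–30 °C. After 14 days of growth, the foliage received a small-sprayer application of emulsion diluted to the intended rate; injury was rated at 3 weeks.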

[3] = test system: directly sowed rice plant; assay: Test Example 3: effect on crop by foliage application, Wagner pot (symbol b); conditions: application herbicide amount 320 g/ha
Outline: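 Wagner pot (1/10000 are), alluvial soil, submerged 0.1–0.5 cm; sown E. crus-galli var. crus-galli, L. chinensis, C. difformis, rice; greenhouse 25–30 °C.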

wheat [4] = assay: Test Example 4: effect on crop by soil treatment (symbol e); conditions: 320 g/ha
Outline: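 Seeds were sown in spots on sterilized diluvial soil in a plastic box and covered with about 1.5 cm of soil. Plants were then grown in a greenhouse at 25° C. to 30° C.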

Alopecurus myosuroides = assay: Test Example 5: herbicidal effect by foliage application, plastic box (symbol J); conditions: 320 g/ha, 3 weeks after application
Outline: (§1)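 Visual herbicidal score, taken three weeks post-application, of seedlings sprayed on the foliage with water-diluted emulsion at a predetermined amount; plants were 14 days old, greenhouse-raised at 25° C. to 30° C.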

Amaranthus retroflexus = assay: Test Example 5: herbicidal effect by foliage application, plastic box (symbol N); conditions: 320 g/ha, 3 weeks after application
Outline: as §1

Stellaria media = assay: Test Example 5: herbicidal effect by foliage application, plastic box (symbol P); conditions: 320 g/ha, 3 weeks after application
Outline: as §1

corn = assay: Test Example 5: effect on crop by foliage application, plastic box (symbol c); conditions: 320 g/ha, 3 weeks after application
Outline: (§2)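 Crop seed is sown alongside grass and broadleaf weed species in spots in sterilized diluvial soil, then covered to a depth of about 1.5 cm. Plants grow in a greenhouse kept at 25° C. to 30° C.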

rice plant = assay: Test Example 5: effect on crop by foliage application, plastic box (symbol b); conditions: 320 g/ha, 3 weeks after application
Outline: as §2

wheat [5] = assay: Test Example 5: effect on crop by foliage application, plastic box (symbol e); conditions: 320 g/ha, 3 weeks after application
Outline: as §2

beet = assay: Test Example 5: effect on crop by foliage application, plastic box (symbol f); conditions: 320 g/ha, 3 weeks after application
Outline: as §2

Structure (SMILES)	Herbicidal effect grade, A: Echinochloa oryzacola Vasing. [1]	Effect grade on crop, a: transplanted rice plant (transplanted rice plant)	Herbicidal effect grade, B: Scirpus juncoides (Scirpus juncoides)	herbicidal effect on H (Echinochloa crus-galli var. crus-galli), grade 0-5 [2]	effect on crop b (directly sowed rice plant), grade 0-5 [3]	e: wheat, effect grade on crop (wheat [4])	J: Alopecurus myosuroides, herbicidal effect (criteria 0-5) (Alopecurus myosuroides)	N: Amaranthus retroflexus, herbicidal effect (criteria 0-5) (Amaranthus retroflexus)	P: Stellaria media, herbicidal effect (criteria 0-5) (Stellaria media)	c: corn, effect on crop (criteria 0-5) (corn)	b: directly sowed rice plant, effect on crop (criteria 0-5) (rice plant)	e: wheat, effect on crop (criteria 0-5) (wheat [5])	f: beet, effect on crop (criteria 0-5) (beet)
CON=C(C)CC1CC(OC(=O)COc2ccc3ccccc3c2)=C(c2c(C)cc(C)cc2C)C1=O (stereo not drawn) [1-083]	5 (Herbicidal ratio of 90% or more (almost completely withered))	5 (Herbicidal ratio of 90% or more (almost completely withered))	4 (Herbicidal ratio of 70% or higher and lower than 90%)	5 (Herbicidal ratio of 90% or more (almost completely withered))	3 (Herbicidal ratio of 40% or higher and lower than 70%)	4 (Herbicidal ratio of 70% or higher and lower than 90%)	5 (Herbicidal ratio of 90% or more (almost completely withered))	4 (Herbicidal ratio of 70% or higher and lower than 90%)	4 (Herbicidal ratio of 70% or higher and lower than 90%)	5 (Herbicidal ratio of 90% or more (almost completely withered))	5 (Herbicidal ratio of 90% or more (almost completely withered))	5 (Herbicidal ratio of 90% or more (almost completely withered))	0 (Herbicidal ratio of 5% or lower (almost no effect))
CON=C(CC1CC(O)=C(c2c(C)cc(C)cc2C)C1=O)C1CCCCC1 (stereo not drawn) [1-085]	4 (Herbicidal ratio of 70% or higher and lower than 90%)	3 (Herbicidal ratio of 40% or higher and lower than 70%)	0 (Herbicidal ratio of 5% or lower (almost no effect))	5 (Herbicidal ratio of 90% or more (almost completely withered))	5 (Herbicidal ratio of 90% or more (almost completely withered))	0 (Herbicidal ratio of 5% or lower (almost no effect))	3 (Herbicidal ratio of 40% or higher and lower than 70%)	0 (Herbicidal ratio of 5% or lower (almost no effect))	0 (Herbicidal ratio of 5% or lower (almost no effect))	5 (Herbicidal ratio of 90% or more (almost completely withered))	4 (Herbicidal ratio of 70% or higher and lower than 90%)	3 (Herbicidal ratio of 40% or higher and lower than 70%)	0 (Herbicidal ratio of 5% or lower (almost no effect))
C=CC(CC1CC(O)=C(c2c(C)cc(C)cc2C)C1=O)=NOC (stereo not drawn) [1-086]	5 (Herbicidal ratio of 90% or more (almost completely withered))	3 (Herbicidal ratio of 40% or higher and lower than 70%)	0 (Herbicidal ratio of 5% or lower (almost no effect))	5 (Herbicidal ratio of 90% or more (almost completely withered))	5 (Herbicidal ratio of 90% or more (almost completely withered))	0 (Herbicidal ratio of 5% or lower (almost no effect))	4 (Herbicidal ratio of 70% or higher and lower than 90%)	0 (Herbicidal ratio of 5% or lower (almost no effect))	0 (Herbicidal ratio of 5% or lower (almost no effect))	3 (Herbicidal ratio of 40% or higher and lower than 70%)	4 (Herbicidal ratio of 70% or higher and lower than 90%)	0 (Herbicidal ratio of 5% or lower (almost no effect))	0 (Herbicidal ratio of 5% or lower (almost no effect))
CON=C(C)CC1CC(OC(=O)C(C)Oc2ccc(Oc3cnc4cc(Cl)ccc4n3)cc2)=C(c2c(C)cc(C)cc2C)C1=O (stereo not drawn) [1-087]	5 (Herbicidal ratio of 90% or more (almost completely withered))	5 (Herbicidal ratio of 90% or more (almost completely withered))	5 (Herbicidal ratio of 90% or more (almost completely withered))	5 (Herbicidal ratio of 90% or more (almost completely withered))	5 (Herbicidal ratio of 90% or more (almost completely withered))	5 (Herbicidal ratio of 90% or more (almost completely withered))	5 (Herbicidal ratio of 90% or more (almost completely withered))	4 (Herbicidal ratio of 70% or higher and lower than 90%)	3 (Herbicidal ratio of 40% or higher and lower than 70%)	5 (Herbicidal ratio of 90% or more (almost completely withered))	5 (Herbicidal ratio of 90% or more (almost completely withered))	5 (Herbicidal ratio of 90% or more (almost completely withered))	4 (Herbicidal ratio of 70% or higher and lower than 90%)
CON=C(C)CC1CC(OC(=O)C2=CCCC2)=C(c2c(C)cc(C)cc2C)C1=O (stereo not drawn) [1-088]	5 (Herbicidal ratio of 90% or more (almost completely withered))	5 (Herbicidal ratio of 90% or more (almost completely withered))	5 (Herbicidal ratio of 90% or more (almost completely withered))	5 (Herbicidal ratio of 90% or more (almost completely withered))	5 (Herbicidal ratio of 90% or more (almost completely withered))	3 (Herbicidal ratio of 40% or higher and lower than 70%)	5 (Herbicidal ratio of 90% or more (almost completely withered))	1 (Herbicidal ratio of 5% or higher and lower than 20%)	3 (Herbicidal ratio of 40% or higher and lower than 70%)	5 (Herbicidal ratio of 90% or more (almost completely withered))	5 (Herbicidal ratio of 90% or more (almost completely withered))	5 (Herbicidal ratio of 90% or more (almost completely withered))	0 (Herbicidal ratio of 5% or lower (almost no effect))
CON=C(C)CC1CC(OC(=O)C2=C(Br)CCC2)=C(c2c(C)cc(C)cc2C)C1=O (stereo not drawn) [1-089]	5 (Herbicidal ratio of 90% or more (almost completely withered))	5 (Herbicidal ratio of 90% or more (almost completely withered))	4 (Herbicidal ratio of 70% or higher and lower than 90%)	5 (Herbicidal ratio of 90% or more (almost completely withered))	5 (Herbicidal ratio of 90% or more (almost completely withered))	1 (Herbicidal ratio of 5% or higher and lower than 20%)	5 (Herbicidal ratio of 90% or more (almost completely withered))	2 (Herbicidal ratio of 20% or higher and lower than 40%)	0 (Herbicidal ratio of 5% or lower (almost no effect))	5 (Herbicidal ratio of 90% or more (almost completely withered))	5 (Herbicidal ratio of 90% or more (almost completely withered))	5 (Herbicidal ratio of 90% or more (almost completely withered))	0 (Herbicidal ratio of 5% or lower (almost no effect))
